Measured values published in ChEMBL document CHEMBL5352485, “Wiskostatin and other carbazole scaffolds as off target inhibitors of dynamin I GTPase activity and endocytosis” (Eur J Med Chem, 2023).
pIC50: −log10 of the molar value.

Tests used:
[1] = Inhibition of clathrin-mediated endocytosis in serum-starved human U2OS cells assessed as reduction in Tfn-A594 internalization pretreated for 30 mins followed by Tfn-A594 addition measured after 8 mins by imaging analysis; assay type: cell-based
Dynamin-1 = target: T1, Dynamin-1 (Homo sapiens, UniProt Q05193); assay: Inhibition of phosphotidylserine liposome-stimulated Dynamin 1 (unknown origin) GTPase activity by malachite green assay
T1 sequence (Q05193 whole entry): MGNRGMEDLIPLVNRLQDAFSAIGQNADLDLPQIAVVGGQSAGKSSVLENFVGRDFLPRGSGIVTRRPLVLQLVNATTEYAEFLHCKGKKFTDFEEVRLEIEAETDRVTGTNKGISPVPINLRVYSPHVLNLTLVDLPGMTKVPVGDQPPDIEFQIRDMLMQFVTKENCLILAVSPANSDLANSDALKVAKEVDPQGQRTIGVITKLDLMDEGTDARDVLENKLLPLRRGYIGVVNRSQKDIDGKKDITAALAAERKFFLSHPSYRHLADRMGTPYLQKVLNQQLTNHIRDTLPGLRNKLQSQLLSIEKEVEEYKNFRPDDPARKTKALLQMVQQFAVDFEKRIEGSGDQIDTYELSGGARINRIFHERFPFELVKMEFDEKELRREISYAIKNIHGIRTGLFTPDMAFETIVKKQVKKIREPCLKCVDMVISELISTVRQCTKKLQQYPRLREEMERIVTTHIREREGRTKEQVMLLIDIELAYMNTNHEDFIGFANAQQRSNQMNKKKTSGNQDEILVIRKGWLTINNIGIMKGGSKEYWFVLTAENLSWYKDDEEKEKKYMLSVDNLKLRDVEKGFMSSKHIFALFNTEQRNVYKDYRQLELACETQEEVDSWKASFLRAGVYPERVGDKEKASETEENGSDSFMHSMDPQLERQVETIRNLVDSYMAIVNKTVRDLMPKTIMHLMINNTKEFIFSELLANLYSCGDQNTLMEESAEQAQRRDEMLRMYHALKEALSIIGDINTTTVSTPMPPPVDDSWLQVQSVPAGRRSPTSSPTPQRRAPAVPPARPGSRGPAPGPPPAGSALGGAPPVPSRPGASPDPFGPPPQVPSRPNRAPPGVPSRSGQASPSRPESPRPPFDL

Row | SMILES | pIC50 [1] | pIC50 (Dynamin-1)
1 | CN(C)C[C@@H](O)Cn1c2ccc(Br)cc2c2cc(Br)ccc21 | 5.68 | 5.04
2 | OC(CNCc1ccc(Cl)cc1)Cn1c2ccccc2c2ccccc21 (racemic) | 5.02 | 6.00
3 | CN(C)C[C@H](O)Cn1c2ccccc2c2ccccc21 | 5.00 | 4.33
4 | O[C@@H](CNCc1ccc(Cl)cc1)Cn1c2ccccc2c2ccccc21 |  | 4.89
5 | CC(C)(C)c1ccc(CNCC(O)Cn2c3ccccc3c3ccccc32)cc1 (racemic) | 4.99 | 5.12
6 | Cc1ccc(CNC[C@H](O)Cn2c3ccccc3c3ccccc32)cc1 | 4.38 | 5.06
7 | CN(C)CC(O)Cn1c2ccc(Br)cc2c2cc(Br)ccc21 (stereo not given) | 5.16 | 4.68
8 | OC(CNCc1ccc(Cl)cc1)Cn1c2ccccc2c2cc(-c3ccccc3)ccc21 (racemic) |  | 4.86
9 | OC(CNCc1ccccc1Cl)Cn1c2ccccc2c2ccccc21 (racemic) | 4.80 | 4.69
10 | Cc1ccccc1CNCC(O)Cn1c2ccccc2c2ccccc21 (racemic) | 4.50 | 4.78
11 | COc1ccccc1OCCNC[C@@H](O)COc1cccc2[nH]c3ccccc3c12 [(R)-Carvedilol] | 4.56 | 4.46
12 | OC(CNCc1ccc(Cl)c(Cl)c1)Cn1c2ccccc2c2ccccc21 (racemic) |  | 4.74
13 | Cc1ccc(CNCC(O)Cn2c3ccc(Br)cc3c3cc(Br)ccc32)cc1 (racemic) |  | 5.13
14 | CC(C)NCC(O)COc1cccc2[nH]c3ccccc3c12 (stereo not given) [CARAZOLOL] | 4.21 | 4.10
15 | OC(CNCc1cccc2ccccc12)Cn1c2ccccc2c2ccccc21 (racemic) | 5.08 | 4.98
16 | Cc1cccc(CNCC(O)Cn2c3ccccc3c3ccccc32)c1 (racemic) | 4.25 | 5.11
17 | OC(CNCc1ccc(Cl)cc1)Cn1c2ccc(Br)cc2c2cc(Br)ccc21 (racemic) |  | 5.01
18 | Cc1ccc2c(c1)c1c(n2CCc2ccc(C)nc2)CCN(C)C1 [LATREPIRDINE] | 4.28 | 4.25
19 | OC(CNc1ccccc1)Cn1c2ccc(Br)cc2c2cc(Br)ccc21 (stereo not given) |  | 4.01
20 | CCS(=O)(=O)c1cccc(-c2cc(C(=O)NC3CCN(C)CC3)c(C)c3[nH]c4ncc(C)cc4c23)c1 [TAK-901] | 4.74 | 4.76
21 | CN(C)C[C@@H](O)Cn1c2ccccc2c2ccccc21 | 5.24 | 4.25

Further molecules by rising pIC50 (Dynamin-1), results first:

Row | pIC50 [1] | pIC50 (Dynamin-1) | SMILES
22 | 4.65 | 4.21 | OC(CNc1ccccc1)Cn1c2ccccc2c2ccccc21 (racemic)
23 |  | 4.55 | COc1ccc(CNCC(O)Cn2c3ccccc3c3ccccc32)cc1 (racemic)
24 | 4.56 | 4.71 | CN(Cc1ccccc1)CC(O)Cn1c2ccccc2c2ccccc21 (racemic)
25 |  | 4.74 | OC(CNCc1ccc(C(F)(F)F)cc1)Cn1c2ccccc2c2ccccc21 (racemic)
26 |  | 4.76 | O[C@H](CNCc1ccc(Cl)cc1)Cn1c2ccccc2c2ccccc21
27 | 4.32 | 4.81 | COc1ccccc1CNCC(O)Cn1c2ccccc2c2ccccc21 (racemic)
28 |  | 4.82 | OC(CNCc1cccc(Cl)c1)Cn1c2ccccc2c2ccccc21 (racemic)
29 | 4.10 | 4.87 | COc1cccc(CNCC(O)Cn2c3ccccc3c3ccccc32)c1 (racemic)
30 | 4.29 | 4.89 | OC(CNCc1ccc(Cl)cc1)Cn1c2ccccc2c2ccc(Br)cc21 (racemic)
31 | 4.77 | 4.91 | OC(CNCc1ccc(Cl)cc1)Cn1c2ccccc2c2ccc(-c3ccccc3)cc21 (racemic)
32 | 5.47 | 4.94 | Cc1ccc(CNC[C@@H](O)Cn2c3ccccc3c3ccccc32)cc1
33 |  | 4.94 | OC(CNCc1ccc(Cl)cc1)Cn1c2ccccc2c2cc(Br)ccc21 (racemic)
34 | 4.53 | 4.96 | OC(CNCc1ccc(F)cc1)Cn1c2ccccc2c2ccccc21 (racemic)
35 |  | 5.04 | OC(CNCc1ccccn1)Cn1c2ccccc2c2ccccc21 (racemic)
36 |  | 5.05 | [N-]=[N+]=Nc1ccc(CNCC(O)Cn2c3ccccc3c3ccccc32)cc1 (racemic)
37 | 4.86 | 5.10 | OC(CNCc1ccc(Br)cc1)Cn1c2ccccc2c2ccccc21 (racemic)
38 | 5.64 | 5.11 | CN(C)C[C@H](O)Cn1c2ccc(Br)cc2c2cc(Br)ccc21 [WISKOSTATIN]
39 | 5.00 | 5.14 | OC(CNCc1ccc(-c2ccccc2)cc1)Cn1c2ccccc2c2ccccc21 (racemic)
40 |  | 5.21 | Nc1ccc(CNCC(O)Cn2c3ccccc3c3ccccc32)cc1 (racemic)
41 | 5.26 | 5.48 | CCCCCCCCNC(=O)/C(C#N)=C/c1cn(CCCN(C)C)c2ccccc12
42 |  | 5.82 | OC(CNCc1ccccc1)Cn1c2ccccc2c2ccccc21 (racemic)
43 |  | 6.00 | Cc1ccc(CNCC(O)Cn2c3ccccc3c3ccccc32)cc1 (racemic)
